The structures appear in SMILES notation. Read-outs that look alike come from different tables or passages of the source.

This note sets out measurements from patent US7705156B2, “Heteroaryl (substituted)alkyl N-substituted sulfoximines as insecticides” (Dow AgroSciences LLC, priority 2006, dated 2010).

Experiment [1] deals with Cotton Aphid (Aphis gossvpii). The experiment can be described thus: Insecticidal test for cotton aphid in foliar spray assay. It counts as in vivo. Particulars: for pest or weed control at 50 ppm / pest or weed control at 200 ppm: 72 h; for pest or weed control at 50 ppm: read-out: CA 50: % control at 50 ppm against cotton aphid in foliar spray tests; for pest or weed control at 200 ppm: read-out: CA 200: % control at 200 ppm against cotton aphid in foliar spray tests; for % Control at ppm against cotton aphid on squash, foliar spray, 0.781 ppm / % Control at ppm against cotton aphid on squash, foliar spray, 3.125 ppm / % Control at ppm against cotton aphid on squash, foliar spray, 12.5 ppm / % Control at ppm against cotton aphid on squash, foliar spray, 50 ppm: rundown assay. On the procedure:
Insecticidal Test for Cotton Aphid (Aphis gossvpii) in Foliar Spray Assay
Squash with fully expanded cotyledon leaves were trimmed to one cotyledon per plant and infested with cotton aphid (wingless adult and nymph) 1 day prior to chemical application. Each plant was examined before chemical application to ensure proper infestation (ca. 30-70 aphids per plant). Compounds (2 mg) were dissolved in 2 ml of acetone:methanol (1:1) solvent, forming stock solutions of 1000 ppm. The stock solutions were diluted 5× with 0.025% Tween 20 in H2O to obtain the highest test solution at 200 ppm. Lower test concentrations (50, 12.5, 3.13 and 0.78 ppm) were prepared by making sequential 4× dilutions from the 200 ppm solution with a diluent consisting 80 parts of 0.025% Tween 20 in H2O and 20 parts of acetone:methanol (1:1). A hand-held Devilbiss sprayer was used to apply the spray solutions until runoff to both sides of the squash cotyledon leaves. Four plants (4 replications) were used for each concentration of each compound. Reference plants (solvent check) were sprayed with the diluent only. Treated plants were held in a holding room for 3 days at approximately 23° C. and 40% RH before the number of live aphids on each plant was recorded. Insecticidal activity was measured by Corrected % Control using Abbott's correction formula and the values for the lower test concentrations are presented in Table 2: Corrected % Control=100*(X−Y)/X • where X=No. of live aphids on solvent check plants • Y=No. of live aphids on treated plants Insecticidal Test for Green Peach Aphid (Myzus persicae) in Foliar Spray Assay

Experiment [2] relates to Green Peach Aphid (Myzus persicae). The experiment can be described thus: Insecticidal test for green peach aphid in foliar spray assay. The following applies: 72 h, foliar spray on cabbage seedlings, 3 days, Abbott-corrected; for pest or weed control at 200 ppm: read-out: GPA 200: % control at 200 ppm against green peach aphid in foliar spray tests; for pest or weed control at 50 ppm: read-out: GPA 50: % control at 50 ppm against green peach aphid in foliar spray tests. Format: in vivo. On the procedure: Cabbage seedlings grown in 3-inch pots, with 2-3 small (3-5 cm) true leaves, were used as test substrate. The seedlings were infested with 20-50 green peach aphids (wingless adult and nymph) 2-3 days prior to chemical application. Four seedlings were used for each treatment. Compounds (2 mg) were dissolved in 2 ml of acetone:methanol (1:1) solvent, forming stock solutions of 1000 ppm. The stock solutions were diluted 5× with 0.025% Tween 20 in H2O to obtain the highest test solution at 200 ppm. A lower test concentration of 50 ppm was prepared by making a 4× dilution from the 200 ppm solution with a diluent consisting 80 parts of 0.025% Tween 20 in H2O and 20 parts of acetone: methanol (1:1). A hand-held Devilbiss sprayer was used for spraying a solution to both sides of cabbage leaves until runoff. Reference plants (solvent check) were sprayed with the diluent only. Treated plants were held in a holding room for three days at approximately 23° C. and 40% RH prior to grading. Evaluation was conducted by counting the number of live aphids per plant under a microscope. Insecticidal activity was measured by using Abbott's correction formula: Corrected % Control=100*(X−Y)/X • where X=No. of live aphids on solvent check plants • Y=No. of live aphids on treated plants The Corrected % Control values from the above assays are given in Table 2

The mark [3] stands for this setting: 50 ppm, foliar spray on squash, 3 days, Abbott-corrected.
Setting [4] is: 200 ppm, foliar spray on squash, 3 days, Abbott-corrected.

With `CS(=O)(=NC#N)C(Cc1cscn1)c1ccc(Cl)nc1` (stereo not shown) [Compound 1, [1-(6-chloropyridin-3-yl)-2-(1,3-thiazol-4-yl)ethyl](methyl)oxido-λ^4-sulfanylidenecyanamide], in experiment [1] (foliar), the pest or weed control at 50 ppm is 90 to 100% and the pest or weed control at 200 ppm fell in the range of 90 to 100%.
For `CS(=O)(=NC#N)C(CC1CC1)c1ccc(C(F)(F)F)nc1` (stereo not shown) [Compound 2, {1-[6-(trifluoromethyl)pyridin-3-yl]-2-(cyclopropyl)ethyl}(methyl)oxido-λ^4-sulfanylidenecyanamide], in experiment [1], the “% Control at ppm against cotton aphid on squash, foliar spray, 0.781 ppm” value (shortened to “% Control at ppm … 0.781 ppm”) is “C (70-79)”; the “% Control at ppm against cotton aphid on squash, foliar spray, 3.125 ppm” value (shortened to “% Control at ppm … 3.125 ppm”) was “A (90-100)”; the “% Control at ppm against cotton aphid on squash, foliar spray, 12.5 ppm” value (shortened to “% Control at ppm against cotton aphid … 12.5 ppm”) is on record as “A (90-100)”. In experiment [1] (50 ppm), the “% Control at ppm against cotton aphid on squash, foliar spray, 50 ppm” value (“% Control at ppm against cotton aphid … 50 ppm” below) is recorded as “A (90-100)”. In experiment [1] (setting [3]), the pest or weed control at 50 ppm lay in the range of 90 to 100%. Besides, the pest or weed control at 200 ppm in experiment [1] (setting [4]) lay within 90 to 100%. The pest or weed control at 200 ppm in experiment [2] was in the range of 70 to 79%.
Turning to `CS(=O)(=NC#N)[C@@H]1CCC[C@@H]1c1ccc(Cl)nc1` (stereo partly drawn) [Compound 3, cis-[2-(6-chloropyridin-3-yl)cyclopentyl](methyl)-oxido-λ^4-sulfanylidenecyanamide], the pest or weed control at 200 ppm in experiment [1] (setting [4]) and in experiment [2] was 60 to 69% throughout.
For `CS(=O)(=NC#N)C1CCC(c2ccc(Cl)nc2)C1` (stereo not drawn) [Compound 4, cis and trans-[3-(6-chloropyridin-3-yl)cyclopentyl]-(methyl)oxido-λ^4-sulfanylidenecyanamide], the pest or weed control at 50 ppm in experiment [1] (setting [3]) is 70 to 79%. Further, the pest or weed control at 200 ppm fell in the range of 90 to 100% in experiment [1] (setting [4]) and 80 to 89% in experiment [2].
With `N#CN=S1(=O)CCC(c2ccc(C(F)(F)F)nc2)C1` (stereo not shown) [Compound 5, 1-oxido-3-[6-(trifluoromethyl)pyridin-3-yl]tetrahydro-1H-1λ^4-thien-1-ylidenecyanamide], in experiment [1], the “% Control at ppm … 0.781 ppm” value is given as “F (Less than 50)”; the “% Control at ppm … 3.125 ppm” value is reported as “C (70-79)”; the “% Control at ppm against cotton aphid … 12.5 ppm” value is recorded as “A (90-100)”. Besides, in experiment [1] (50 ppm), the “% Control at ppm against cotton aphid … 50 ppm” value is on record as “A (90-100)”. The pest or weed control at 50 ppm in experiment [1] (setting [3]) was 90 to 100%. In experiment [1] (setting [4]), the pest or weed control at 200 ppm was in the range of 90 to 100%. Further, in experiment [2], the pest or weed control at 50 ppm lay in the range of 50 to 59% and the pest or weed control at 200 ppm was in the range of 80 to 89%.
For `CS(=O)(=NC#N)C(Cc1ccc(Cl)nc1)c1ccc(Cl)nc1` (stereo not shown) [Compound 6], in experiment [1] (setting [3]), the pest or weed control at 50 ppm lay in the range of 90 to 100%. Further, the pest or weed control at 200 ppm in experiment [1] (setting [4]) was 90 to 100%.
With `CS(=O)(=NC#N)C(Cc1ccc(Cl)cc1)c1ccc(Cl)nc1` (stereo not shown) [Compound 7], the pest or weed control at 50 ppm in experiment [1] (setting [3]) lay within 90 to 100%. Further, the pest or weed control at 200 ppm in experiment [1] (setting [4]) lay within 90 to 100%.
For `COc1ccc(CC(c2ccc(Cl)nc2)S(C)(=O)=NC#N)cc1` (stereo not shown) [Compound 8], the pest or weed control at 50 ppm in experiment [1] (setting [3]) was 90 to 100%. Further, the pest or weed control at 200 ppm in experiment [1] (setting [4]) is 90 to 100%.
As to `CC(C)C(c1ccc(Cl)nc1)S(C)(=O)=NC#N` (stereo not shown) [Compound 9], in experiment [1] (setting [3]), the pest or weed control at 50 ppm fell in the range of 90 to 100%. Further, in experiment [1] (setting [4]), the pest or weed control at 200 ppm fell in the range of 90 to 100%.
With `COCCC(c1ccc(Cl)nc1)S(C)(=O)=NC#N` (stereo not shown) [Compound 10], the pest or weed control at 50 ppm in experiment [1] (setting [3]) lay in the range of 90 to 100%. The results for the pest or weed control at 200 ppm in experiment [1] (setting [4]) and in experiment [2] were 90 to 100% and 60 to 69%, respectively.
For the compound `COCC(COC)(c1ccc(Cl)nc1)S(C)(=O)=NC#N` (stereo not shown) [Compound 11], in experiment [1] (setting [3]), the pest or weed control at 50 ppm lay in the range of 90 to 100%. In addition, the pest or weed control at 200 ppm in experiment [1] (setting [4]) was in the range of 90 to 100%.
Turning to `CS(=O)(=NC#N)C(CCF)c1ccc(Cl)nc1` (stereo not shown) [Compound 12], in experiment [1], the “% Control at ppm … 0.781 ppm” value is listed as “A (90-100)”; the “% Control at ppm … 3.125 ppm” value is “A (90-100)”; the “% Control at ppm against cotton aphid … 12.5 ppm” value is recorded as “A (90-100)”. In experiment [1] (50 ppm), the “% Control at ppm against cotton aphid … 50 ppm” value is given as “A (90-100)”. Besides, in experiment [1] (setting [3]), the pest or weed control at 50 ppm is 90 to 100%. Also, the pest or weed control at 200 ppm in experiment [1] (setting [4]) was 90 to 100%. In addition, in experiment [2], the pest or weed control at 50 ppm is 90 to 100% and the pest or weed control at 200 ppm fell in the range of 90 to 100%.
For `CS(=O)(=NC#N)C(CC1CC1)c1ccc(Cl)nc1` (stereo not shown) [Compound 13], the pest or weed control at 50 ppm in experiment [1] (setting [3]) was 90 to 100%. For the same compound, the pest or weed control at 200 ppm in experiment [1] (setting [4]) was 90 to 100%.
Take `C#CCC(c1ccc(Cl)nc1)S(C)(=O)=NC#N` (stereo not shown) [Compound 14]: the pest or weed control at 50 ppm in experiment [1] (setting [3]) is 90 to 100%. Besides, the pest or weed control at 200 ppm in experiment [1] (setting [4]) was in the range of 90 to 100%.
`CS(=O)(=NC#N)C(C/C=C/Cl)c1ccc(Cl)nc1` (stereo not shown) [Compound 15]: the pest or weed control at 50 ppm in experiment [1] (setting [3]) was 90 to 100%. Further, the pest or weed control at 200 ppm in experiment [1] (setting [4]) was 90 to 100%.
As for `C#CCC(c1ccc(C(F)(F)F)nc1)S(C)(=O)=NC#N` (stereo not shown) [Compound 16], in experiment [1], the “% Control at ppm … 0.781 ppm” value was “B (80-89)”; the “% Control at ppm … 3.125 ppm” value is recorded as “A (90-100)”; the “% Control at ppm against cotton aphid … 12.5 ppm” value is “A (90-100)”. Further, the “% Control at ppm against cotton aphid … 50 ppm” value in experiment [1] (50 ppm) is reported as “A (90-100)”. Further, the pest or weed control at 50 ppm in experiment [1] (setting [3]) lay within 90 to 100%. In addition, the pest or weed control at 200 ppm in experiment [1] (setting [4]) lay in the range of 90 to 100%. Also, in experiment [2], the pest or weed control at 50 ppm was 80 to 89% and the pest or weed control at 200 ppm lay in the range of 90 to 100%.
On to `CS(=O)(=NC#N)C(C/C=C/Cl)c1ccc(C(F)(F)F)nc1` (stereo not shown) [Compound 17], for which, in experiment [1], the “% Control at ppm … 0.781 ppm” value was “D (60-69)”; the “% Control at ppm … 3.125 ppm” value is on record as “B (80-89)”; the “% Control at ppm against cotton aphid … 12.5 ppm” value is “A (90-100)”. The “% Control at ppm against cotton aphid … 50 ppm” value in experiment [1] (50 ppm) is on record as “A (90-100)”. In addition, the pest or weed control at 50 ppm in experiment [1] (setting [3]) was 90 to 100%. In addition, the pest or weed control at 200 ppm in experiment [1] (setting [4]) is 90 to 100%. Also, in experiment [2], the pest or weed control at 50 ppm was 70 to 79% and the pest or weed control at 200 ppm was 90 to 100%.
Consider `CC(C)C(c1ccc(C(F)(F)F)nc1)S(C)(=O)=NC#N` (stereo not shown) [Compound 18], for which, in experiment [1], the “% Control at ppm … 0.781 ppm” value was “A (90-100)”; the “% Control at ppm … 3.125 ppm” value is on record as “A (90-100)”; the “% Control at ppm against cotton aphid … 12.5 ppm” value is given as “A (90-100)”. In addition, the “% Control at ppm against cotton aphid … 50 ppm” value in experiment [1] (50 ppm) was “A (90-100)”. Besides, in experiment [1] (setting [3]), the pest or weed control at 50 ppm lay in the range of 90 to 100%. In addition, the pest or weed control at 200 ppm in experiment [1] (setting [4]) lay within 90 to 100%. In experiment [2], the pest or weed control at 50 ppm was in the range of 60 to 69% and the pest or weed control at 200 ppm lay in the range of 90 to 100%.
